The source of these data is paper PMC4686663, “Ultrahigh-throughput discovery of promiscuous enzymes by picodroplet functional metagenomics” (Nature Communications, 2015).

For one data set, the target named is P84 (uncultured organism, UniProt A0A141FA95). The data set is described as follows: 4-nitrophenolate release, […] nm, initial rates. Conditions: 100 mM MOPS-NaOH pH 8.0, 150 mM NaCl, 25 °C.
Another data set addresses T1, P83 (uncultured organism, UniProt A0A141FA94).
T1 construct: N-terminal Strep-tag, pASKIBA5plus (BsaI), E. coli BL21(DE3); Strep-Tactin and gel filtration
The data set is described as follows: 4-nitrophenolate release, […] nm, initial rates. In kind it is biochemical. Particulars: 100 mM MOPS-NaOH pH 8.0, 150 mM NaCl, 25 °C.

Another data set addresses T2, P86 (uncultured organism, UniProt A0A141FA97).
T2 construct: N-terminal Strep-tag, pASKIBA5plus (EcoRI-NcoI), E. coli BL21(DE3); Strep-Tactin and gel filtration
The data set is described as follows: 4-nitrophenolate release, […] nm, initial rates. In kind it is biochemical. Particulars: 100 mM MOPS-NaOH pH 8.0, 150 mM NaCl, 25 °C.

The test system of the next data set is T3, P85.
T3 construct: N-terminal Strep-tag, pASKIBA5plus (BsaI), E. coli BL21(DE3); Strep-Tactin and gel filtration
As to the kind of experiment: 4-nitrophenolate release, […] nm, initial rates. In kind it is biochemical. Conditions: 100 mM MOPS-NaOH pH 8.0, 150 mM NaCl, 25 °C.

Another data set deals with T4, P40 (uncultured organism, UniProt A0A141FA90).
T4 construct: ORF p40 recloned in modified pRSFDuet (NcoI-XhoI), E. coli BL21(DE3); no tag stated
As to the kind of experiment: sulfate transfer kinetics. In kind it is biochemical. Particulars: acceptor phenolate; ping-pong mechanism.

Substrate in data set [1]: O=C1CCc2ccccc2O1
As to the kind of experiment: purified protein, by the assay type. Also on record: Michaelis-Menten kinetics of substrate hydrolysis by purified enzyme, initial rates by absorbance or fluorescence, plate reader. The procedure: (§1) All enzymatic assays were conducted at 25 °C in a final volume of 200 μl, in the activity buffer (100 mM MOPS-NaOH pH 8.0, containing 150 mM NaCl) that was used throughout the experiments, unless otherwise stated. Measurements were performed in 96-well plate format and product formation followed in SpectraMax M5 or 190 microplate readers. Hydrolysis of substrates with fluorescein leaving groups (1d and 2d) was monitored at the following wavelengths: λexcitation=488 nm and λemission=525 nm. A calibration curve (linearly fit to the equation: fluorescence=1.2 × 10^10 M^−1 [fluorescein]) was used to quantify fluorescein release. Hydrolysis of esters 1, 2a, 2b, 3, 4, 5, 6 and acetamide 9 was monitored by measuring absorbance of p-nitrophenolate at 400 nm (ɛ≈17,700 M^−1 cm^−1). Hydrolysis of thioester 7 was measured in the presence of the indicator 5,5'-dithiobis-(2-nitrobenzoic acid) (500 μM); the increase of 2-nitro-5-thiobenzoate was monitored at 412 nm (ɛ≈13,100 M^−1 cm^−1)[39]. Hydrolysis of lactones 8b, 8c, 8d1, 8d2 was measured using a pH-shift assay in 2.5 mM Bicine, 200 mM NaCl, 0.3 mM cresol purple pH 8.3 (ref. [65]). The pH drop was monitored by the decrease in the absorbance of the indicator dye cresol purple at 577 nm (ɛ≈4,000 M^−1 cm^−1). Hydrolysis of lactone 8a was measured at 270 nm in an ultraviolet-transparent 96-well plate. Hydrolysis of β-lactam 10 was measured at 405 nm in phosphate buffer (100 mM, pH 8.0). All kinetic parameters were calculated by fitting initial rates vo to the Michaelis–Menten equations (or, if saturation could not be reached due to solubility limits, to linear correlations) using Kaleidagraph. Example data and details of equations used for fitting are shown in Supplementary Fig. 14. (b) PTE hits. Applying the screening workflow to PTEs (using triester 2d as substrate) led to the isolation of eight unique and novel sequences, mostly originating from unknown microorganisms (Supplementary Table 2). Only one of these genes (p83) was predicted as a potential PTE by Pfam domain recognition (Fig. 3). […]

Substrate in data set [2]: CC(=O)Oc1ccc([N+](=O)[O-])cc1
As to the kind of experiment: purified protein, by the assay type. Also on record: Michaelis-Menten kinetics of substrate hydrolysis by purified enzyme, initial rates by absorbance or fluorescence, plate reader. Particulars: 25.0 °C. Here is the method: as §1

Where a name gives a salt, the structure may show the parent alone. Read-outs that look alike come from different tables or passages of the source.

Sequence of P84 (A0A141FA95 entry or part of it): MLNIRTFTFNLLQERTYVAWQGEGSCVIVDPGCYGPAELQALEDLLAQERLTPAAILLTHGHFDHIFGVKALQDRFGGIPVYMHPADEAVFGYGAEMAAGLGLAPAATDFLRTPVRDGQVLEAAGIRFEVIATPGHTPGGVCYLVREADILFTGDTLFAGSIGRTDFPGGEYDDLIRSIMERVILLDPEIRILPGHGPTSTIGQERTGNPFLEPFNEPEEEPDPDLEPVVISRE
T4 sequence (A0A141FA90 entry or part of it): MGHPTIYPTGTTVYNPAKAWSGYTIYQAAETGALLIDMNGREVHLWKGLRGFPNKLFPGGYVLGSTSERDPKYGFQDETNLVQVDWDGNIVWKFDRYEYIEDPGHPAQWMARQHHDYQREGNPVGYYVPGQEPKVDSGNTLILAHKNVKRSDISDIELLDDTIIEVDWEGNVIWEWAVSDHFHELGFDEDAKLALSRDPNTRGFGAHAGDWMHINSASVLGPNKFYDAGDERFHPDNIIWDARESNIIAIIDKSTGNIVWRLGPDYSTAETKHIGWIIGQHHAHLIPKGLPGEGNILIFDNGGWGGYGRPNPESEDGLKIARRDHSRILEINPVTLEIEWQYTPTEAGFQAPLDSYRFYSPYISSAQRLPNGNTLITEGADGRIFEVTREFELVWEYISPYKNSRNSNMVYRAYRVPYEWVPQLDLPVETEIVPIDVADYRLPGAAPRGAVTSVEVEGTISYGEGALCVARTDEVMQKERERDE
T2 sequence (A0A141FA97 entry or part of it): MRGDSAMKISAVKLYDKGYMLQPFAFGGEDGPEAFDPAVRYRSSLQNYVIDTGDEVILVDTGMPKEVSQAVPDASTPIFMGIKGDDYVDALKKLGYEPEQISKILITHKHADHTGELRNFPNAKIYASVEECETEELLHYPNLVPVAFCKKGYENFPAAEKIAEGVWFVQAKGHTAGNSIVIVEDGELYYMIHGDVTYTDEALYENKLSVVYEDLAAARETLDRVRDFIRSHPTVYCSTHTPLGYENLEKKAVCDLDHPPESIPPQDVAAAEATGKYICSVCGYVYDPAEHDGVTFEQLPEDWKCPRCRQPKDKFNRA

Consider `CCOP(=O)(OCC)Oc1ccc([N+](=O)[O-])cc1` [2a, paraoxon], for which the Km at P84, at P83, on P86 and in the data set with P85 was over 5 mM in each case.
In the case of `O=[N+]([O-])c1ccc(OS(=O)(=O)O)cc1` [1a, sulfate ester 1a], the sulfate transfer kinetics entry on P40 is given as “P40 was shown to catalyse sulfate transfer from sulfate ester 1a to phenolate”.

B1: P83 (uncultured organism) (protein)
chain: MQINSVLGPVDTADLGFTLIHEHLLIGWAGWQWDSRWEFDRANAMAKAVDLLQELKALGVSTFVDPCPMDIGRDPEFLAEASQRSGMTIIASTGLYHSEMGIPSYFHAMPEEEIAEIFIHDLTEGMGHTGIKAGIIKCATTAGHVTEQEQKTHGAAARAQVATGAPIITHTDENGPMGLAQLDIFESRGASVSKIAIGHSCGNGDIRYLLSVLERGAWLSFDRFGFGLSASDDVRVASLLGLIGLGYADRLMISHDSVSTFLAKPGGWDPAQEPSLANWKPTHIIQNIIPRLKNAGVSQEVIDTITIDNPRRYFEGSAASGNK
notes: N-terminal Strep-tag, pASKIBA5plus (BsaI), E. coli BL21(DE3); Strep-Tactin and gel filtration
B1: the Km in data set [1] came out at 2.5 ± 0.4 mM.

B2: P91 (uncultured organism) (protein)
chain: MTARKVDYTDGATRCIGEFHWDEGKSGPRPGVVVFPEAFGLNDHAKERARRLADLGFAALAADMHGDAQVFDAASLSSTIQGYYGDRAHWRRRAQAALDALTAQPEVDGSKVAAIGFCFGGATCLELARTGAPLTAIVTFHGGLLPEMAGDAGRIQSSVLVCHGADDPLVQDETMKAVMDEFRRDKVDWQVLYLGNAVHSFTDPLAGSHGIPGLAYDATAEARSWTAMCNLFSELFG
notes: as for B1
As for B2, the Km in data set [1] (25.0 °C) is 7.7 ± 2.5 mM.

B3: P88.2 (uncultured organism) (protein)
chain: MNLTETLPGDELANAMAARGYPAVEPATTRDRGVGPFRRLVLRGARILDGTGAPPVGPYDIVVEGGRIKEVVLVGVPKMPIKPERRPAPGDHEIDCTGKLVTPGFVDAHVHIGTYYHAPSGPMPSADYVYKLWLAHGITTVREMACMNGVGWTLEQKEAAAANRIAAPKIVAHAYFPAVDEFIKTIYTVEQARKWVRAVKERGVDGLKFFGAPPAIMQAALEEANKLGMRSGCHHAQMSVSKVNALRSAQWGLTSTEHFYGIPEAMFIDRAVQAYPVGYDFMDESLRYNSSSQNFIQAAEPGSAKWQETLEKFLELGHSFVPTLAILEANRDLMRARRADWHDEYTHKTLWTYFQPHRGGHCSHWYRWTTTNEVQWKEHFRRWMRFCNDYKNLGGRVCPGSDAGFTFQLYGFCFIRELEQMQEAGFHPLEIFRAATSESAALLGVDHETGTIEPGKCADLLVHRYDPLDDLKYLYGTGAWRLNDETGKTEWHRGIEYTIKDGVIYDPAELLADVRAIVAESFNEGEDTRPRTRR
notes: N-terminal Strep-tag, pASKIBA5plus (EcoRI-NcoI), E. coli BL21(DE3); Strep-Tactin and gel filtration
B3: the Km in data set [2] was 2.9 ± 1.2 mM.
